# In PMC4254045 (Bioorganic & medicinal chemistry, 2014):
# “Also recorded” adds a separate entry of the source. Square brackets hold non-standard residues; d marks the D form. Peptide text beside a SMILES is read from it. dPhe(4-guanidino) = N=C(N)Nc1ccc(C[C@@H](N)C(=O)O)cc1; Phe(4-guanidino) = N=C(N)Nc1ccc(C[C@H](N)C(=O)O)cc1
# What was measured:
# rats = conditions: cited from earlier work
# human MrgX1 [1] = target: T1, human MrgX1 (Homo sapiens, UniProt Q96LB2); test: Antagonist activity in human MrgX1 using BAM8-22; assay type: cell-based; conditions: human MrgX1, BAM8-22 (200 nM) as agonist
# mice = conditions: cited from earlier work
# mouse MrgC11 [2] = target: T2, mouse MrgC11 (Mus musculus, UniProt Q8CIP3); test: FLIPR agonist assay, transiently transfected HEK293 or KNRK cells, mouse MrgC11; assay type: cell-based; conditions: for agonist activity at mouse MrgC11 (in words): full agonism relative to BAM8-22
# T2 sequence (Q8CIP3 1-322): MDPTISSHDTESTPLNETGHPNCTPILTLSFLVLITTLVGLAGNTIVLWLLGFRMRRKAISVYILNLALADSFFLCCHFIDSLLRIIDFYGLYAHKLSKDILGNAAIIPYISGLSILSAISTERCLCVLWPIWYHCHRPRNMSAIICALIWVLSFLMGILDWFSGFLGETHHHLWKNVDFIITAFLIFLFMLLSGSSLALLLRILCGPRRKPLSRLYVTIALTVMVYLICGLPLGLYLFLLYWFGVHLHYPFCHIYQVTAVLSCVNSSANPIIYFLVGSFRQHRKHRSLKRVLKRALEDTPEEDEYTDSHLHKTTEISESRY
# rat MrgC = target: T3, rat MrgC (Rattus norvegicus, UniProt Q8R4G1); test: FLIPR agonist assay, transiently transfected HEK293 or KNRK cells, rat MrgC; assay type: cell-based
# T3 sequence (Q8R4G1 1-323): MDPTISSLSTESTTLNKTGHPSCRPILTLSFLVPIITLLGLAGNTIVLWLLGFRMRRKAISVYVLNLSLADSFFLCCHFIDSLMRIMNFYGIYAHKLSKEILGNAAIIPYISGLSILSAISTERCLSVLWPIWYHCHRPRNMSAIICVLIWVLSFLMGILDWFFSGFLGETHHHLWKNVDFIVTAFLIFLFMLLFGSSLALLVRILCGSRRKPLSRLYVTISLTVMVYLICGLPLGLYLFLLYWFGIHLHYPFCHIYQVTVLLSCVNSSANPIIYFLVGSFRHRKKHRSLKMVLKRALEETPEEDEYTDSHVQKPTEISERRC
# mouse MrgC11 [3] = target: T2, mouse MrgC11; conditions: cited from earlier work
# human MrgX1 [4] = target: T1, human MrgX1; test: FLIPR agonist assay, HEK293 cells stably transfected with human MrgX1; assay type: cell-based
# [5] = FLIPR, transiently transfected HEK293 or KNRK cells, average of at least three independent experiments ± SD
# [6] = highest concentration tested due to limited solubility
# T1 sequence (Q96LB2 whole entry): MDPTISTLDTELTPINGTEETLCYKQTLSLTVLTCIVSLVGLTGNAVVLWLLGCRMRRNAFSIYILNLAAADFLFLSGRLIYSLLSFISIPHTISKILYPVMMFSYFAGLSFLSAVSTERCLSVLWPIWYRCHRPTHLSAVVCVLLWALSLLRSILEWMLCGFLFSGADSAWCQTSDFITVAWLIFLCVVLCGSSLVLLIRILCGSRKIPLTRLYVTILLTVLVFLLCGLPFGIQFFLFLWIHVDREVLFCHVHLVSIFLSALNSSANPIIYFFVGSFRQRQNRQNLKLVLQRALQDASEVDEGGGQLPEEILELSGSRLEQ
molecule,measurement,setting,value
"N=C(N)Nc1ccc(C[C@@H](N)C(=O)N[C@@H](Cc2ccccc2)C(N)=O)cc1 [24b, (2R)-2-amino-N-((2S)-1-amino-1-oxo-3-phenylpropan-2-yl)-3-(4-guanidinophenyl)propanamide bis(trifluoroacetate)] (H-[dPhe(4-guanidino)]-Phe-NH2)",effect on neuropathic pain,rats,attenuated neuropathic pain
same,antagonist activity at concentrations up to 200 μM,human MrgX1 [1],"Neither Arg-Phe-NH2 nor 24b, however, showed any antagonist activity"
same,effect on neuropathic pain,mice,attenuated neuropathic pain
same,agonist activity at mouse MrgC11 (in words),mouse MrgC11 [2]; FLIPR,exhibited agonist activity
same,fold more potent than 24a at mouse MrgC11,mouse MrgC11 [2]; relative to diastereomer 24a,~10 fold
same,agonist activity at rat MrgC (in words),rat MrgC; FLIPR,exhibited agonist activity
same,fold more potent than 24a at rat MrgC,rat MrgC; relative to diastereomer 24a,~100 fold
"N=C(N)Nc1ccc(C[C@H](N)C(=O)N[C@@H](Cc2ccccc2)C(N)=O)cc1 [24a, (2S)-2-amino-N-((2S)-1-amino-1-oxo-3-phenylpropan-2-yl)-3-(4-guanidinophenyl)propanamide bis(trifluoroacetate)] (H-[Phe(4-guanidino)]-Phe-NH2)",agonist activity at mouse MrgC11 (in words),mouse MrgC11 [2]; FLIPR,exhibited agonist activity
same,agonist activity at rat MrgC (in words),rat MrgC; FLIPR,exhibited agonist activity
Arg-Phe,EC50 for activating MrgC11 (in words),mouse MrgC11 [3],submicromolar
N=C(N)Nc1cccc(C(N)C(=O)N[C@@H](Cc2ccccc2)C(N)=O)c1 (some centres unmarked) [20b],pEC50 Mouse MrgC11,mouse MrgC11 [2]; [5],4.5 ± 0.1
same,agonist activity at rat MrgC (in words),rat MrgC; FLIPR,failed to show agonist activity; also recorded: Neither of the analogs showed agonist activity
same,pEC50 Rat MrgC,rat MrgC; [5],<4
"COc1ccc(-c2ccc(C(=O)Nc3cccc(Cn4ncc(N5CCNCC5)cc4=O)c3C)cc2)cn1 [1c, reference compound]",agonist activity at human MrgX1 (in words),human MrgX1 [4]; FLIPR,selectively activated human MrgX1
same,agonist activity at mouse MrgC11 at concentrations up to 2 μM,mouse MrgC11 [2]; [6],no measurable agonist activity
same,agonist activity at rat MrgC at concentrations up to 2 μM,rat MrgC; [6],no measurable agonist activity
Phe-Met-Arg-Phe-NH2,MrgC11 agonist activity (in words),mouse MrgC11 [3],submicromolar
Phe-Met-D-Arg-Phe-NH2,MrgC11 agonist activity (in words),mouse MrgC11 [3],inactive
"N=C(N)N[C@@H]1CN[C@H](C(=O)N[C@@H](Cc2ccccc2)C(N)=O)C1 [compound 12, (2S,4S)-N-((S)-1-amino-1-oxo-3-phenylpropan-2-yl)-4-guanidinopyrrolidine-2-carboxamide bis(trifluoroacetate)]",agonist activity at rat MrgC (in words),rat MrgC; FLIPR,failed to show agonist activity
"N=C(N)NC[C@@H]1CN[C@H](C(=O)N[C@@H](Cc2ccccc2)C(N)=O)C1 [compound 16, (2S,4S)-N-((S)-1-amino-1-oxo-3-phenylpropan-2-yl)-4-(guanidinomethyl)pyrrolidine-2-carboxamide bis(trifluoroacetate)]",agonist activity at rat MrgC (in words),rat MrgC; FLIPR,failed to show agonist activity
N=C(N)Nc1cccc(C(N)C(=O)N[C@@H](Cc2ccccc2)C(N)=O)c1 (some centres unmarked) [20a],EC50,human MrgX1 [4],> 100 µM
same,EC50,rat MrgC,> 100 µM
same,agonist activity at rat MrgC (in words),rat MrgC; FLIPR,failed to show agonist activity; also recorded: Neither of the analogs showed agonist activity
